Data published in US10907197B2, “Probes for imaging huntingtin protein” (CHDI Foundation, Inc., priority 2014, dated 2021).

Columns and labels:
Q46 protein aggregates = molecular target: T1, Q46 protein aggregates (Homo sapiens, UniProt P42858, INS38QQQQQQQQQQQQQQQQQQQQQQQQQ); assay: Q46 Radioligand Binding Assay (RBA); settings: displacement of 10 nM [3H3]MK-3328 from 5 μM Q46 protein aggregates, 60 min at 37° C.
T1 construct: 33 μM GST-Q46 was incubated with 150 μg/mL thrombin in assay buffer (150 mM NaCl, 50 mM Tris pH 8.0) and 2 mM CaCl2 for 16 hr at 37° C; fused on or other part: GST at the N-terminus
Experimental: Q46 Radioligand Binding Assay
For radioligand binding assays (RBA) GST-Q46 protein was generated based on a previous publication (Scherzinger et al. Cell, Vol. 90, 549-558, Aug. 8, 1997). For experiments 33 μM GST-Q46 was incubated with 150 μg/mL thrombin in assay buffer (150 mM NaCl, 50 mM Tris pH 8.0) and 2 mM CaCl2 for 16 hr at 37° C. Aggregated Q46 was pelleted by centrifugation for 5 min at 13,000 rpm in a bench top centrifuge and re-dissolved in the same volume of assay buffer. Test compounds were prepared by titration in DMSO at 11 concentrations from 33 μM to 1 nM. For the RBA, Q46 protein aggregates and test compounds were pre-incubated in assay buffer for 20 min at room temperature, in 140 μL/well in a 96-well plate (pp, round bottom). Then, ligand was added in 10 μL/well and incubated for 60 min at 37° C. Final assay concentrations were 1 μM to 30 pM test compound, 5 μM Q46 protein (equivalent monomer concentration) and 10 nM ligand [^3H3]MK-3328 (Harrision et al., ACS Med. Chem. Lett., 2 (2011), pp 498-502). Samples were transferred onto GF/B filter plates and washed 2× with 200 μL PBS using a Filtermate Harvester. After drying filter plates for 1 hr at 37° C., the back of the plates was sealed with foil and 30 μL/well scintillation fluid (Packard MicroScint 40) was added, incubated for incubated for 15 min in the dark and counted in a TopCount reader. […] IC50 values were determined with a sigmoidal inhibition model with four variables (top, bottom, slope, IC50) in a global fit using the normalized replicate data.

[1] = tested on: recombinant tau and amyloid β1-42 (Aβ1-42) aggregates; settings: higher affinity for the tau aggregates than Aβ1-42 aggregates; cited from earlier work
[2] = tested on: NFT in sections of AD brain tissue; settings: cited from earlier work

T1 sequence (P42858 with tags, fused parts or gaps with the stated changes): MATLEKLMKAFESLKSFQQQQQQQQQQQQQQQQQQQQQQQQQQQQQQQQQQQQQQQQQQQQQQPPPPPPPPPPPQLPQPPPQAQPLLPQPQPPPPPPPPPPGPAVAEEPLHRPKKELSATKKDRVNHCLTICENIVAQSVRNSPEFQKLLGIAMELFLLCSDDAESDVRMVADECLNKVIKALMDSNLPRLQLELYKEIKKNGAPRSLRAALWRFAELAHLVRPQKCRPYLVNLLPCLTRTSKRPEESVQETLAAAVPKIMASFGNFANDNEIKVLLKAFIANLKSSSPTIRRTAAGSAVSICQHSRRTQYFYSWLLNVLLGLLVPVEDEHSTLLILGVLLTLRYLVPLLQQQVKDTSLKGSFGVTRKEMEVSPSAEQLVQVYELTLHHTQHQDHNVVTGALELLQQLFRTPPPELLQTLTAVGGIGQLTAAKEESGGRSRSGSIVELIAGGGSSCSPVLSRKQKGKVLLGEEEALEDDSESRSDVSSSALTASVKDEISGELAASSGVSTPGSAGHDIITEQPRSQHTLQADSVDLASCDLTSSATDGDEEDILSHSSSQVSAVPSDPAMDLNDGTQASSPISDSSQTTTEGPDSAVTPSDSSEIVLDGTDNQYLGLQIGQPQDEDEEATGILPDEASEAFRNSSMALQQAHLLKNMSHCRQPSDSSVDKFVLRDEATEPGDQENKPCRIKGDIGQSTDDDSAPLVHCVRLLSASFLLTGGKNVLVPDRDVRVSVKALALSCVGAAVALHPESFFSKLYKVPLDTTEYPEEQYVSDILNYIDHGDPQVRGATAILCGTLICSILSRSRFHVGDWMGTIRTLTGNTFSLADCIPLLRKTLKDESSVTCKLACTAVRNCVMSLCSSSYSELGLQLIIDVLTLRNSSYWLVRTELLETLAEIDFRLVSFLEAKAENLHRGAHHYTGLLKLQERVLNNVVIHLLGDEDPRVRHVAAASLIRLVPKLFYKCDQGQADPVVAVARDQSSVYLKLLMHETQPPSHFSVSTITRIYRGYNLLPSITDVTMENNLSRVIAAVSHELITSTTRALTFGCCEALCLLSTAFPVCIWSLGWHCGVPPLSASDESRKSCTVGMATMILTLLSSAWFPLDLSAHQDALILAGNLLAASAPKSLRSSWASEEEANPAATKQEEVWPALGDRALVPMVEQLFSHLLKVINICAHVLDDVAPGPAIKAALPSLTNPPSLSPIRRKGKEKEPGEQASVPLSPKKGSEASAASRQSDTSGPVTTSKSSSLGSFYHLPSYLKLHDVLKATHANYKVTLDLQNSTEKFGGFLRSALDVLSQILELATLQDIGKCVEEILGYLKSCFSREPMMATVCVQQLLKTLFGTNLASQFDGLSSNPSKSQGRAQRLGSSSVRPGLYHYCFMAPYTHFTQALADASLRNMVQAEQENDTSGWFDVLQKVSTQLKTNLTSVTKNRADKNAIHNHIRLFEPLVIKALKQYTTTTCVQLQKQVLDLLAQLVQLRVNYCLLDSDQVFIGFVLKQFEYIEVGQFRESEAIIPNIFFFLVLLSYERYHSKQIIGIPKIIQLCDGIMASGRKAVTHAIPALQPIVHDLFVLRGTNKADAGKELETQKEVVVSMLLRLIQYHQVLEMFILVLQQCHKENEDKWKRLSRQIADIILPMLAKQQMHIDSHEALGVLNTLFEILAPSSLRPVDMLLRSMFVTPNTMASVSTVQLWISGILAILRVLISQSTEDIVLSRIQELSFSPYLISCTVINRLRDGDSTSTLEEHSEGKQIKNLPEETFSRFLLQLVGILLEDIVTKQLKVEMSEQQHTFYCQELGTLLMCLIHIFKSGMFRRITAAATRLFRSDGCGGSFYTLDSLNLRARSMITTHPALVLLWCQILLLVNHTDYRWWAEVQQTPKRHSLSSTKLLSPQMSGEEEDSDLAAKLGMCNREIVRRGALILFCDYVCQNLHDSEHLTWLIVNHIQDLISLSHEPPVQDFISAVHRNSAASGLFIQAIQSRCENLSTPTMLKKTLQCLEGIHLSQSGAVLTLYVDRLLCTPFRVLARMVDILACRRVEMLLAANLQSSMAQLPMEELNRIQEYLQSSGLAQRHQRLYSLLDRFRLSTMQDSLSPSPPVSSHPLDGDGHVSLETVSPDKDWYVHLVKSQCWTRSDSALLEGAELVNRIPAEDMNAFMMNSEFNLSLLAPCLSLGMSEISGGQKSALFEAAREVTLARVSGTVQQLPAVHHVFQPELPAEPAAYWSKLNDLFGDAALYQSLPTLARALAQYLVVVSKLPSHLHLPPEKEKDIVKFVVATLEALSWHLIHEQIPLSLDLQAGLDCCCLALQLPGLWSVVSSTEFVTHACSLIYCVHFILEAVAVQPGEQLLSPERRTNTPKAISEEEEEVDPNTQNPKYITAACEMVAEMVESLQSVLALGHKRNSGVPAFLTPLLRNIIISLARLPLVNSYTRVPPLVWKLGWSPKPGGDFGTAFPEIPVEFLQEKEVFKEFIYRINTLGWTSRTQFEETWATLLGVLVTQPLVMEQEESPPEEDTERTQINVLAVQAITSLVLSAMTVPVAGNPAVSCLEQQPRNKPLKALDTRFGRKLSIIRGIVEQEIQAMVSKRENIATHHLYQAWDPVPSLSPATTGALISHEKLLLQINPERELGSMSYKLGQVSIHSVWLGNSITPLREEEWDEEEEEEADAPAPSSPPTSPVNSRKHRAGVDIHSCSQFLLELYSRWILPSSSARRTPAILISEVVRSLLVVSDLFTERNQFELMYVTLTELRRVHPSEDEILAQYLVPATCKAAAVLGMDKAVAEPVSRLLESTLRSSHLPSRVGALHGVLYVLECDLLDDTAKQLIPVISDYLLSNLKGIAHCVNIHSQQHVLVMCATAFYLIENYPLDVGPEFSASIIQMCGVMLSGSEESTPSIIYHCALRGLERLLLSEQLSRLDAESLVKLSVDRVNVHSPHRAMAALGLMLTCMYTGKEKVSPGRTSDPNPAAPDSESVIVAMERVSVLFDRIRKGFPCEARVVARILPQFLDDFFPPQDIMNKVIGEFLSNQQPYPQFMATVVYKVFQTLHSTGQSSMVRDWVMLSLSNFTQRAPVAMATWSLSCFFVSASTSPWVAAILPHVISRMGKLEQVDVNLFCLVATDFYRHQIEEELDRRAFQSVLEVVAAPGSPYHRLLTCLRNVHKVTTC

| SMILES | IC50 (Q46 protein aggregates) | ratio of Kd values [1] | binding to NFT [2] |
| --- | --- | --- | --- |
| N#Cc1cnccc1-c1nc2ccc(C(F)(F)F)cc2s1 [4-[6-(trifluoromethyl)-1,3-benzothiazol-2-yl]pyridine-3-carbonitrile] | < 100 nM |  |  |
| COc1ccc2oc(-c3cc(CN(C)C)ccc3C#N)cc2c1 [4-[(dimethylamino)methyl]-2-(5-methoxy-1-benzofuran-2-yl)benzonitrile] | < 100 nM |  |  |
| COc1ccc2oc(-c3ncnc(I)c3C#N)cc2c1 [4-iodo-6-(5-methoxy-1-benzofuran-2-yl)pyrimidine-5-carbonitrile] | > 500 nM |  |  |
| CN(CCO)c1ccc2oc(-c3ccncc3C#N)cc2c1 [4-{5-[(2-hydroxyethyl)(methyl)amino]-1-benzofuran-2-yl}pyridine-3-carbonitrile] | < 100 nM |  |  |
| COc1cc2cc(-c3ccncc3C#N)oc2cn1 [4-{5-methoxyfuro[2,3-c]pyridin-2-yl}pyridine-3-carbonitrile] | < 100 nM |  |  |
| COc1cnc2cc(-c3ccncc3C#N)oc2c1 [4-{6-methoxyfuro[3,2-b]pyridin-2-yl}pyridine-3-carbonitrile] | < 100 nM |  |  |
| COc1ccc2oc(-c3ccc(Br)cc3C#N)cc2c1 [5-bromo-2-(5-methoxy-1-benzofuran-2-yl)benzonitrile] | < 100 nM |  |  |
| O=c1[nH]cc(Br)cc1-c1cc2cc(Br)cnc2o1 [5-bromo-3-{5-bromofuro[2,3-b]pyridin-2-yl}-1,2-dihydropyridin-2-one] | < 100 nM |  |  |
| COc1ccc2oc(-c3ccncc3)c(C#N)c2c1 [5-methoxy-2-(pyridin-4-yl)-1-benzofuran-3-carbonitrile] | < 100 nM |  |  |
| COc1ccc2oc(-c3ccc(C#N)cn3)cc2c1 [6-(5-methoxy-1-benzofuran-2-yl)pyridine-3-carbonitrile] | < 100 nM |  |  |
| COc1ccc2nc(-c3ccccc3OC)sc2c1 [6-methoxy-2-(2-methoxyphenyl)-1,3-benzothiazole] | 100 to 500 nM |  |  |
| COc1ccc2nc(-c3cccnc3)oc2c1 [6-methoxy-2-(pyridin-3-yl)-1,3-benzoxazole] | 100 to 500 nM |  |  |
| COc1ccc2nc(-c3ccncc3-c3ccn[nH]3)sc2c1 [6-methoxy-2-[3-(1H-pyrazol-5-yl)pyridin-4-yl]-1,3-benzothiazole] | 100 to 500 nM |  |  |
| COc1ccc2oc(-c3cccc4cn[nH]c34)cc2c1 [7-(5-methoxy-1-benzofuran-2-yl)-1H-indazole] | < 100 nM |  |  |
| COc1ccc2nc(-c3ccncc3NC(C)=O)sc2c1 [N-[4-(6-methoxy-1,3-benzothiazol-2-yl)pyridin-3-yl]acetamide] | < 100 nM |  |  |
| COc1ccc2oc(-c3cccc(NC(C)=O)n3)cc2c1 [N-[6-(5-methoxy-1-benzofuran-2-yl)pyridin-2-yl]acetamide] | < 100 nM |  |  |
| CN(C)c1ccc(/C=C/c2nc3ccc(I)cc3[nH]2)cc1 [SBIM-3, 4-[(E)-2-(6-iodo-1H-benzimidazol-2-yl)ethenyl]-N,N-dimethylaniline] |  | 2.73 | bound NFT in sections of AD brain tissue |
| OCc1ccc2oc(-c3cccnc3)nc2c1 [[2-(pyridin-3-yl)-1,3-benzoxazol-5-yl]methanol] | > 500 nM |  |  |
